According to patent publication US20260250318A1, “COMPOSITIONS AND METHODS FOR CROSSING THE BLOOD BRAIN BARRIER” (VOYAGER THERAPEUTICS, INC., priority 2022, published 2026):

Columns and labels:
[1] = test system: brain; test: Maturation of TTM-001 capsid, NGS enrichment in brain of CD-1 Outbred mice; format: in vivo; conditions: NGS fold-enrichment of TTM-001 matured AAV capsid variants in the brain of CD-1 Outbred mice; intravenous 1.0×10^12 VG/dose; 14 days in life; RNA; relative to non-matured TTM-001 control
Description: This Example describes maturation of the TTM-001 (SEQ ID NO: 981 (amino acid) and 983 (DNA), comprising SEQ ID NO: 941) and TTM-002 (SEQ ID NO: 982 (amino acid) and 984 (DNA), comprising SEQ ID NO: 2) capsid variants to further enhance their transduction and biodistribution in the central nervous system and evolve the AAV capsid variants to provide further cross-species compatibility. Two approaches were used to mature the TTM-001 and TTM-002 capsid sequences in order to randomize and mutate within and around the peptide insert comprised within loop IV of the capsid variant. […] In the first maturation approach, sets of three contiguous amino acids were randomized across the mutagenesis region in the TTM-001 and TTM-002 sequences, which spanned from position 450 to position 466, numbered according to SEQ ID NO: 981 and 982. In the second maturation approach, mutagenic primers were used to introduce point mutations at a low frequency, scattered across the mutagenesis region in the TTM-001 and TTM-002 sequences ranging from position 449 to position 466, numbered according to SEQ ID NO: 981 and 982. AAV capsid variants arising from each maturation approach for TTM-001 were pooled together and AAV capsid variants arising from each maturation approach for TTM-002 were also pooled together, for subsequent testing and characterization in mice.
The library of pooled matured AAV capsid variants generated from TTM-001 or library of pooled matured AAV capsid variants generated from the TTM-002 matured AAV capsid variant each were intravenously injected into the tail vein of three female CD-1 Outbred mice (Charles River) at a dose of 1.0×10^12 VG/dose. After 14-days in life, the brains of the mice were isolated and RNA was extracted. Following RNA recovery and RT-PCR amplification, a systematic NGS enrichment analysis was performed to calculate the fold enrichment ratio relative to the corresponding TTM-001 or TTM-002 control, and the peptides comprised within the variants were identified. The data for the TTM-001 matured capsid variants is provided in Table 13 and the data for the TTM-002 matured capsid variants is provided in Table 14.

[2] = test system: brains, heart, liver, muscle, and DRG of the NHPs; test: Maturation of TTM-001 and TTM-002 capsids, NGS enrichment in NHP tissues; format: in vivo
Description: This Example describes maturation of the AAV9 capsid variants, TTM-001 (SEQ ID NO: 981 (amino acid) and 983 (DNA), comprising SEQ ID NO: 941 (encoded by SEQ ID NO: 942)) and TTM-002 (SEQ ID NO: 982 (amino acid) and 984 (DNA), comprising SEQ ID NO: […] (encoded by SEQ ID NO: 944)) in NHPs to further enhance their transduction and biodistribution in the central nervous system as well as other tissues, and evolve the AAV capsid variants to provide further cross-species compatibility. Two approaches were used to mature the TTM-001 and TTM-002 capsid sequences in order to randomize and mutate within and around the peptide insert comprised within loop IV of the capsid variant. […] In the first maturation approach, sets of three contiguous amino acids were randomized across the mutagenesis region in the TTM-001 and TTM-002 sequences, which spanned from position 450 to position 466, numbered according to SEQ ID NO: 981 and 982. In the second maturation approach, mutagenic primers were used to introduce point mutations at a low frequency, scattered across the mutagenesis region in the TTM-001 and TTM-002 sequences ranging from position 449 to position 466, numbered according to SEQ ID NO: 981 and 982. AAV capsid variants arising from each maturation approach for TTM-001 and TTM-002 were pooled together, for subsequent testing and characterization in NHPs.
The library of pooled matured AAV capsid variants generated using the first maturation approach and the second maturation approach for the TTM-001 and TTM-002 AAV capsid variants were injected into two NHPs. […] Following RNA recovery and RT-PCR amplification, a systematic NGS enrichment analysis was performed to calculate the fold enrichment ratio relative to an AAV9 control, and the peptides comprised within the variants were identified.
Following the RNA recovery and NGS analysis from the second maturation approach, approximately 680,000 capsid variants were identified. The 680,000 matured capsid variants were then filtered based on samples with a raw virus count greater than 10 and a coefficient of variance (CV) of less than 1, which was calculated for each peptide across the brain samples taken from the two NHPs. […] Using this filtering criteria, this led to approximately 64,000 matured capsid variants.

[3] = NHP DRG, NGS, relative to AAV9 control
[4] = NHP brain, NGS, relative to AAV9 control
[5] = NHP heart, NGS, relative to AAV9 control
[6] = NHP liver DNA, NGS, relative to AAV9 control
[7] = NHP liver RNA, NGS, TTM-001 and TTM-002 matured AAV capsid variants, relative to AAV9 control
[8] = NHP muscle, NGS, relative to AAV9 control

| Sequence | Fold enrichment over TTM-001 [1] [fold] | other results |
| --- | --- | --- |
| KAFNGSGSPHSKAPNQQT | 2.088 |  |
| KDLRGSGSPHSKAQNQQT | 2.238 |  |
| KDSLGSGSPHSKAQNQQT | 2.175 |  |
| KEIKGSGSPHSKAQNQQT | 2.140 |  |
| KELVGSGSPHSKAQNQQT | 2.019 |  |
| KEVAGSGSPHSKAQNQQT | 2.250 |  |
| KEVGGSGSPHSKAQNQQT | 2.358 |  |
| KEVMGSGSPHSKAQNQQT | 2.047 |  |
| KGHEGSGSPHSKAQNQQT | 2.151 |  |
| KGINGSGSPHGKAQNQQT | 2.084 |  |
| KGLSGSGSPHSKAQNQQT | 4.056 |  |
| KGLVGSGSPHSKAQNQQT | 2.412 |  |
| KHRSGSGSPHSKAQNQQT | 2.456 |  |
| KPLDGSGSPHSKAQNQQT | 2.488 |  |
| KPLPGSGSPHSKAQNQQT | 2.495 |  |
| KPLRGSGSPHSKAQNQQT | 2.486 |  |
| KPPTGSGSPHSKAQNQQT | 2.270 |  |
| KPRLGSGSPHSKAQNQQT | 2.406 |  |
| KQPLGSGSPHSKAQNQQT | 2.024 |  |
| KRLFGSGSPHSKAQNQQT | 2.330 |  |
| KRSKGSGSPHSKAQNQQT | 2.030 |  |
| KSINGSGSPHSKAHDQQT | 3.592 |  |
| KSMNGSGSPHSRAQNQQT | 5.145 |  |

| Sequence | Fold enrichment over TTM-001 [1] [fold] | other results |
| --- | --- | --- |
| KTIMRVGSPHSKAQNQQT | 4.875 |  |
| KTINASGSPHSKAQGQQT | 2.108 |  |
| KTINFLRSPHSKAQNQQT | 3.331 |  |
| KTINGALSPHRKAQNQQT | 2.203 |  |
| KTINGCSSPHRKAQNQQT | 2.291 |  |
| KTINGFLSPHRKAQNQQT | 2.654 |  |
| KTINGFRSPHLKAQNQQT | 2.063 |  |
| KTINGFRSPHSKAQNQQT | 2.333 |  |
| KTINGFSSPHRKAQNQQT | 2.276 |  |
| KTINGHLSPHRKAQNQQT | 2.851 |  |
| KTINGHRSPHLKAQNQQT | 2.320 |  |
| KTINGHSSPHRKAQNQQT | 2.639 |  |
| KTINGIASPHRKAQNQQT | 2.099 |  |
| KTINGILSPHRKAQNQQT | 2.475 |  |
| KTINGIRSPHTKAQNQQT | 2.793 |  |
| KTINGKLSPHMKAQNQQT | 2.449 |  |
| KTINGKRSPHSKAQNQQT | 3.611 |  |
| KTINGKTSPHGKAQNQQT | 2.717 |  |
| KTINGLASPHRKAQNQQT | 2.737 |  |
| KTINGLFSPHRKAQNQQT | 2.331 |  |
| KTINGLLSPHRKAQNQQT | 3.026 |  |
| KTINGLLSPHWKAQNQQT | 4.173 |  |
| KTINGLPSPHRKAQNQQT | 2.719 |  |

| Sequence | Fold enrichment over TTM-001 [1] [fold] | other results |
| --- | --- | --- |
| KTINGLRSPHRKAQNQQT | 3.676 |  |
| KTINGLRSPHSKAQNQQT | 2.238 |  |
| KTINGLTSPHRKAQNQQT | 2.663 |  |
| KTINGLVSPHCKAQNQQT | 2.605 |  |
| KTINGMCSPHSKAQNQQT | 2.006 |  |
| KTINGMKSPHSKAQNQQT | 2.413 |  |
| KTINGMLSPHRKAQNQQT | 2.646 |  |
| KTINGMRSPHGKAQNQQT | 2.527 |  |
| KTINGMRSPHVKAQNQQT | 2.937 |  |
| KTINGMSSPHRKAQNQQT | 2.352 |  |
| KTINGNLSPHRKAQNQQT | 2.250 |  |
| KTINGNVSPHRKAQNQQT | 2.043 |  |
| KTINGPLSPHCKAQNQQT | 2.194 |  |
| KTINGPLSPHRKAQNQQT | 2.028 |  |
| KTINGQRSPHSKAQNQQT | 2.590 |  |
| KTINGQRSPHVKAQNQQT | 2.596 |  |
| KTINGRASPHVKAQNQQT | 2.272 |  |
| KWLTGSGSPHSKAQNQQT (peptide inserted in AAV capsid) |  | Fold Enrichment relative to AAV9, DRG (NHP) [2, 3]: 0.000 fold; Fold Enrichment relative to AAV9, Brain (NHP) [2, 4]: 0.364 fold; Fold Enrichment relative to AAV9, Heart (NHP) [2, 5]: 0.000 fold; Fold Enrichment relative to AAV9, Liver DNA (NHP) [2, 6]: 2.388 fold; Fold Enrichment relative to AAV9, Liver RNA (NHP) [2, 7]: 26.975 fold; Fold Enrichment relative to AAV9, Muscle (NHP) [2, 8]: 2578.486 fold |
| KYIVGSGSPHSKAQNQQT (peptide inserted in AAV capsid) |  | Fold Enrichment relative to AAV9, DRG (NHP) [2, 3]: 0.000 fold; Fold Enrichment relative to AAV9, Brain (NHP) [2, 4]: 0.000 fold; Fold Enrichment relative to AAV9, Heart (NHP) [2, 5]: 0.000 fold; Fold Enrichment relative to AAV9, Liver DNA (NHP) [2, 6]: 4.480 fold; Fold Enrichment relative to AAV9, Liver RNA (NHP) [2, 7]: 94.721 fold; Fold Enrichment relative to AAV9, Muscle (NHP) [2, 8]: 0.000 fold |
| KYSAGSGSPHSKAQNQQT (peptide inserted in AAV capsid) |  | Fold Enrichment relative to AAV9, DRG (NHP) [2, 3]: 0.000 fold; Fold Enrichment relative to AAV9, Brain (NHP) [2, 4]: 0.000 fold; Fold Enrichment relative to AAV9, Heart (NHP) [2, 5]: 0.000 fold; Fold Enrichment relative to AAV9, Liver DNA (NHP) [2, 6]: 1.824 fold; Fold Enrichment relative to AAV9, Liver RNA (NHP) [2, 7]: 41.310 fold; Fold Enrichment relative to AAV9, Muscle (NHP) [2, 8]: 0.000 fold |
| KYSMGSGSPHSKAQNQQT (peptide inserted in AAV capsid) |  | Fold Enrichment relative to AAV9, DRG (NHP) ([2]; NGS fold-enrichment, DRG, NHP, relative to AAV9): 0.000 fold; Fold Enrichment relative to AAV9, Brain (NHP) ([2]; NGS fold-enrichment, brain, NHP, relative to AAV9): 0.000 fold; Fold Enrichment relative to AAV9, Heart (NHP) ([2]; NGS fold-enrichment, heart, NHP, relative to AAV9): 0.000 fold; Fold Enrichment relative to AAV9, Liver DNA (NHP) ([2]; NGS fold-enrichment, liver DNA, NHP, relative to AAV9): 1.587 fold; Fold Enrichment relative to AAV9, Liver RNA (NHP) ([2]; NGS fold-enrichment, liver RNA, NHP, relative to AAV9): 10.478 fold; Fold Enrichment relative to AAV9, Muscle (NHP) ([2]; NGS fold-enrichment, muscle, NHP, relative to AAV9): 0.000 fold |
| KYVFGSGSPHSKAQNQQT (peptide inserted in AAV capsid) |  | Fold Enrichment relative to AAV9, DRG (NHP) [2, 3]: 0.000 fold; Fold Enrichment relative to AAV9, Brain (NHP) [2, 4]: 0.000 fold; Fold Enrichment relative to AAV9, Heart (NHP) [2, 5]: 0.000 fold; Fold Enrichment relative to AAV9, Liver DNA (NHP) [2, 6]: 2.346 fold; Fold Enrichment relative to AAV9, Liver RNA (NHP) [2, 7]: 22.232 fold; Fold Enrichment relative to AAV9, Muscle (NHP) [2, 8]: 0.000 fold |
| KYYTGSGSPHSKAQNQQT (peptide inserted in AAV capsid) |  | Fold Enrichment relative to AAV9, DRG (NHP) [2, 3]: 0.000 fold; Fold Enrichment relative to AAV9, Brain (NHP) [2, 4]: 0.000 fold; Fold Enrichment relative to AAV9, Heart (NHP) [2, 5]: 0.000 fold; Fold Enrichment relative to AAV9, Liver DNA (NHP) [2, 6]: 1.199 fold; Fold Enrichment relative to AAV9, Liver RNA (NHP) [2, 7]: 38.777 fold; Fold Enrichment relative to AAV9, Muscle (NHP) [2, 8]: 0.000 fold |
